# Assay results reported in article PMC8692993, “PPARα and PPARγ activation is associated with pleural mesothelioma invasion but therapeutic inhibition is ineffective” (iScience, 2021).
# Assay: Mouse pharmacokinetic study, plasma exposure after IP dosing
# Assay type: in vivo, BALB/c mice
# Details: IP 10 mg/kg; for Cmax / Plasma AUC0–24 h: female BALB/c mice
# Procedure: Pharmacokinetic animal studies were conducted using established procedures in accordance with the Australian Code of Practice for the Care and Use of Animals for Scientific Purposes, and the study protocols were reviewed and approved by the Monash Institute of Pharmaceutical Sciences Animal Ethics Committee. The systemic exposure of GW6471 was studied in non-fasted female BALB/c mice (5 - 8 weeks) weighing 15.2–22.6 g. Mice had access to food and water ad libitum throughout the pre- and post-dose sampling period. GW6471 (10 mg/kg) was dosed to all mice via a single intraperitoneal (IP) injection (5 mL/kg). For the ABT pre-treated group, ABT was pre-dosed to animals at 50 mg/kg via IP injection (5 mL/kg) 2 h prior to administration of GW6471. Following IP administration of GW6471, blood samples were collected up to 24 h at indicated time points (n = 3 mice per time point) with a maximum of three samples from each mouse. Blood samples were collected via submandibular bleed (approximately 120 μL) into polypropylene Eppendorf tubes containing heparin as anticoagulant and stabilisation cocktail (containing the protease inhibitor cocktail Complete® and KF) to minimise the potential for ex vivo compound degradation in blood/plasma samples. Once collected, blood samples were centrifuged immediately, supernatant plasma was removed, and stored at−80°C until analysis by liquid chromatography-mass spectrometry (LC–MS). The plasma concentration versus time profile was defined by the average plasma concentration at each sample time, and PK parameters were calculated using non-compartmental methods (PKSolver Version 2.0).
# Compound quantification was performed using a Xevo G2 QTOF (in vitro metabolic stability) using positive electrospray ionisation under MS^E mode or a Waters Xevo TQD (mouse exposure) mass spectrometer using positive electrospray ionisation multiple-reaction monitoring mode. Compounds were eluted using an acetonitrile-water/0.05% formic acid gradient at a flow rate of 0.4 mL/min operating over a 4 min cycle on a Waters Acquity UPLC using a Supelco Ascentis Express RP C8 column (50 × 2.1 mm, 2.7 μm). Extraction was performed by precipitation using acetonitrile (1:1 volume ratio for microsomes and 2:1 volume ratio for plasma samples) followed by centrifugation. Compound concentrations were quantified against calibration standards prepared in an appropriate matrix to match the test samples (e.g. plasma or microsomes).
# ABT Formulation: On the evening prior to dosing, ABT was dissolved in a 0.9% (w/v) saline using vortexing and sonicating, resulting in a colourless solution. The nominal concentration of ABT in the formulation was 10 mg/mL. GW6471 Formulation: The final drug contains 40% final volume of PEG400 (Kollisolv PEG E 400, Sigma Aldrich), and 60% final volume of Solutol HS-15 (Kolliphor HS-15, Sigma Aldrich). Solutol is previously mixed in a saline solution (12.5% concentration). On the day of dosing, the solid GW6471 was first dissolved in PEG400by thoroughly vortexing and sonicating for 5 min. Then, the saline solution containing Solutol HS-15 12.5% was added. Again, the formulation was then thoroughly vortexed and sonicated to produce a hazy pale yellow suspension with an apparent pH of 3.4. The nominal concentration of GW6471 in the formulation was 2 mg/mL. […] The dose administered to each mouse was calculated on the basis of the mouse body weight (determined prior to dosing).
# [1] = ABT 50 mg/kg IP 2 h before (ABT + GW6471)
structure (smiles),measurement,setting,value
CCC(=O)NC[C@H](Cc1ccc(OCCc2nc(-c3ccccc3)oc2C)cc1)N/C(C)=C\C(=O)c1ccc(C(F)(F)F)cc1 [GW6471],Increase of plasma concentration with ABT pre-treatment (based on AUC and Cmax),ABT pre-treatment versus none,approximately 3 fold
same,Cmax,[1],3600 nM
same,Plasma AUC0–24 h,[1],31.4 h∗μM
same,Cmax,without ABT,1180 nM
same,Plasma AUC0–24 h,without ABT,9.81 h∗μM
